Measurements: PubChem BioAssay (NCI)
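Five concentrations, 48 hours, 96-well plates. GI50 is the concentration that inhibits growth by half. TGI: concentration producing complete growth inhibition.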

What was measured:
Assay in all cases: growth of human tumour cells (NCI), 48 h
[1] = system: HOP-92 NSCLC
[2] = system: LOX IMVI melanoma
[3] = system: MCF7 breast
[4] = system: MDA-N
[5] = system: MOLT-4 leukemia
[6] = system: OVCAR-5 ovarian
[7] = system: SF-295 CNS
[8] = system: SK-OV-3 ovarian
[9] = system: SN12C renal
[10] = system: U251 CNS
[11] = system: UO-31 renal
[12] = system: BT-549 breast

Compound	TGI [1] [µM]	TGI [2] [µM]	TGI [3] [µM]	TGI [4] [µM]	TGI [5] [µM]	TGI [6] [µM]	TGI [7] [µM]	TGI [8] [µM]	TGI [9] [µM]	TGI [10] [µM]	TGI [11] [µM]	TGI [12] [µM]	GI50 [1] [µM]	GI50 [3] [µM]	GI50 [7] [µM]	GI50 [8] [µM]	GI50 [9] [µM]	GI50 [10] [µM]	GI50 [11] [µM]	GI50 [6] [µM]
CC(C)[C@@H]1CC[C@@H](C)C[C@H]1OC(=O)/C=C1/C2C=CC(O2)C1C(=O)O[C@@H]1C[C@H](C)CC[C@H]1C(C)C (stereo partly specified)	> 100	> 100	> 100	> 100	> 100	> 100	> 100	> 100	> 100	> 100	> 100									
Cc1sc2nc(-c3cc([N+](=O)[O-])c(Cl)cc3Cl)c(/C=N/N=C(N)N)n2c1C	31.5				4.64	> 100	36.4		28.5	> 100	26.4	12								
Cc1c2c(cc3c1[nH]c1ccccc13)C=NCC2	16.4	36.6	8.7		24.8	61	27.1	97.2	62.6	47.3	59.9									
O=C(Nc1nc2c(=O)[nH]cnc2s1)c1ccccc1	> 100	> 100	> 100			> 100	> 100	> 100	> 100	> 100	> 100	> 100								
Cc1cc(CNC(=O)OCc2ccccc2)c(C)c2c1Oc1ccccc1O2	26.1	> 100	> 100		> 100	> 100	> 100	51.3	> 91.8	> 67.3	> 100	> 100								
O=C1CSc2nc3ccccc3n2/C=N\N1	> 100	> 100	> 100	> 100	> 100	> 100	> 100	> 100	> 100	> 100	> 100									
O=C(Nc1c[nH]c(=O)[nH]c1=O)C(Cl)Cl	> 100	> 100	> 100	> 100	> 100		> 100	> 100	> 100	> 100	> 100									
O=c1[nH]nc(-c2ccccc2)n1/N=C/c1c[nH]c2ccccc12	> 100	> 100	> 100	> 100	> 100	> 100	> 100	> 100	> 100	> 100	> 100									
COC(=O)C(C)(N=Cc1ccccc1)c1ccccc1 (stereo unspecified)	> 100	> 100	> 100	> 100	> 100	> 100	> 100	> 100	> 100	> 100	> 100									
FC(F)(F)c1ccccc1N1CCN(c2nc(-c3cccs3)nc3ccc(Br)cc23)CC1		> 100	17.5		> 100	> 100	> 100	> 100	> 100	> 100	> 100	> 100								
Cc1cc(O)c2c(c1O)C(=O)C13C(=C2O)C(=O)C2C(O)C1C1C(O)C3C(=O)C3=C(O)c4c(O)cc(C)c(O)c4C(=O)C321 (stereo unspecified)		1.46			0.483	9.41	0.311	0.319		0.188	0.214									
NCCCn1c2ccccc2c2c3c(c4c(c21)CCC(O)CC4)C(=O)NC3=O (stereo unspecified)	12.9	2.92	3.58		11.2	15.5	15.6		13.6	13.1	19.9	20.2								
CC(=O)[C@@H]1CCC=C2CC[C@]3(C)[C@@H](CC[C@@H]4[C@@]5(C)CCCNC(C)(C)[C@@H]5CC[C@]43C)[C@H]21	2.77		2.92				3.26	3.37	3.31	3.27	2.89		1.37	1.37	1.81	1.81	1.79	1.76	1.52	
COc1cc2c(c(OC)c1OC)-c1ccc(SC)c(=O)cc1[C@@H](OC(C)=O)CC2	> 100	> 100	> 100		> 100				> 100	> 100	> 52.5	> 100								
O=C(N=C1SCCN1C(=O)C(C(F)(F)F)C(F)(F)F)C(C(F)(F)F)C(F)(F)F	> 100	> 100	> 100		> 100	> 100	> 100	> 100		> 100	> 100									
COc1ccc(S(=O)(=O)O)cc1-n1nc(C(=O)Nc2ccccc2)n[n+]1-c1cc(S(=O)(=O)[O-])ccc1OC			> 100	> 100	> 100	> 100	> 100	> 100	> 100	> 100	> 100									

Compound	TGI [1] [µM]	TGI [2] [µM]	TGI [3] [µM]	TGI [4] [µM]	TGI [5] [µM]	TGI [6] [µM]	TGI [7] [µM]	TGI [8] [µM]	TGI [9] [µM]	TGI [10] [µM]	TGI [11] [µM]	TGI [12] [µM]	GI50 [1] [µM]	GI50 [3] [µM]	GI50 [7] [µM]	GI50 [8] [µM]	GI50 [9] [µM]	GI50 [10] [µM]	GI50 [11] [µM]	GI50 [6] [µM]
C=C1C[C@@H](O)C[C@@]2(C)C[C@@H]3OC(=O)C(=C)[C@@H]3C[C@H]12	28.1	21.5	24.8		16.1	28	54.6	> 81.9	19.6	39.9	31.2									
O=[N+]([O-])/C(C(Cl)=C(Cl)Cl)=C1\NCCO1		> 100	> 100	> 100	> 100	> 100	> 100	> 100	> 100	> 100	> 100									
CC1(C)N=C(C(N)=O)c2ncn(CCO)c2N1	> 100	> 100	> 100	> 100		> 100	> 100	> 100	> 100	> 100										
C=C1C(=O)OC2(C)C3CCC(C3)C12 (stereo unspecified)	87.4	> 100			> 100	> 100	> 100	> 100	> 100	> 100	> 100									
CCN(CC)CCCOC(=O)/C=C/c1c(C)[nH]c(=O)[nH]c1=O	> 625	> 625	> 625		> 625	> 625	> 625	> 625	> 463	> 625	> 625									
CCCCCCCCCCCCCCCCSCC(COC)COP(=O)([O-])OCC[N+](C)(C)C (stereo unspecified)	5.18	17.4	26.7		6.05	26	11.6	28.6	11.3	4.37	20.3									
Cc1ccnc2[nH]c(-c3cccc(Cl)c3)cc(=O)c12	> 100	> 100	> 100		> 50	> 100	> 100	> 100	> 100		> 70.2									
O=C(Nc1cccc(C(F)(F)F)c1)O/N=C(/Cl)CCl	59.2	69.9	> 100	> 100	79.6	45.3	> 100	> 100	> 100	> 100	> 100									
C=CCOCn1cnc2c(N)ncnc21		> 100	> 100	> 100	> 100	> 100	> 100	> 100	> 100	> 100	> 100									
COC(=O)/C=C(\C)C(=O)N(C)c1ccccc1I	> 100	> 100	> 100	> 100	> 100	> 100	> 100	> 100	> 100	> 100	> 100									
CCC1C(c2cccc(OC)c2O)c2cc3c(cc2OC1N1CCCC1)OCO3 (stereo unspecified)		84.6	> 100	19.7	45	76.9	50.8		38.3		39.5									
COc1ccc(N2C(=Nc3ccccc3)SC(=N/S(=O)(=O)c3ccccc3)/C2=N\S(=O)(=O)c2ccccc2)cc1	42		40.8		45.6	50.7			39.8	35.4	55.3	54.2								
COC(=O)C(CCc1ccccc1I)C1=CCC2(CC1)OCCO2 (stereo unspecified)	> 100	> 100	> 100	94.3	> 100	95.8	> 100	> 100		> 100	76.2									
CCOC(=O)Oc1cc2c(c(OC)c1OC)-c1ccc(SC)c(=O)cc1C(NC(=O)C(F)(F)F)CC2 (stereo unspecified)	0.306		19.5	< 0.001		> 100	> 100		> 100	0.0148	75.6						0.0135			18.2
C/C(=N/NC(=S)Nc1ccccc1Cl)c1cccc(/C(C)=N\NC(=S)Nc2ccccc2Cl)n1	> 100	> 100	93.7	> 100	> 100	> 100	> 100	> 100	> 100	> 100	> 100									
